{"source": "PubChem BioAssay AID1259407", "about": "(Chemical Carcinogenesis Research Information System (CCRIS), 2018)", "tested_on": "CCRIS mutagenicity, Ames/micronucleus/aberration tests", "experiment": "CCRIS mutagenicity studies", "conditions": "Test System: AMES SALMONELLA TYPHIMURIUM", "key": {"[1]": {"conditions": "Strain/Indicator: TA98, Metabolic Activation: HAMSTER, LIVER, S-9, AROCLOR 1254 (10%), Method: PREINCUBATION"}, "[2]": {"conditions": "Strain/Indicator: TA98, Metabolic Activation: NONE, Method: PREINCUBATION"}, "[3]": {"conditions": "Strain/Indicator: TA98, Metabolic Activation: RAT, LIVER, S-9, AROCLOR 1254 (10%), Method: PREINCUBATION"}, "[4]": {"conditions": "Strain/Indicator: TA100, Metabolic Activation: HAMSTER, LIVER, S-9, AROCLOR 1254 (10%), Method: PREINCUBATION"}, "[5]": {"conditions": "Strain/Indicator: TA100, Metabolic Activation: NONE, Method: PREINCUBATION"}, "[6]": {"conditions": "Strain/Indicator: TA100, Metabolic Activation: RAT, LIVER, S-9, AROCLOR 1254 (10%), Method: PREINCUBATION"}, "[7]": {"conditions": "Strain/Indicator: TA1535, Metabolic Activation: HAMSTER, LIVER, S-9, AROCLOR 1254 (10%), Method: PREINCUBATION"}, "[8]": {"conditions": "Strain/Indicator: TA1535, Metabolic Activation: NONE, Method: PREINCUBATION"}, "[9]": {"conditions": "Strain/Indicator: TA1535, Metabolic Activation: RAT, LIVER, S-9, AROCLOR 1254 (10%), Method: PREINCUBATION"}, "[10]": {"conditions": "Strain/Indicator: TA1537, Metabolic Activation: HAMSTER, LIVER, S-9, AROCLOR 1254 (10%), Method: PREINCUBATION"}, "[11]": {"conditions": "Strain/Indicator: TA1537, Metabolic Activation: NONE, Method: PREINCUBATION"}, "[12]": {"conditions": "Strain/Indicator: TA1537, Metabolic Activation: RAT, LIVER, S-9, AROCLOR 1254 (10%), Method: PREINCUBATION"}}, "note": "Activity calls are given as the source filed them. The rule behind the calls is not given here.", "data": [{"smiles": "C=CCOC(=O)c1ccccc1N", "values": [{"measurement": "mutagenic call", "setting": "[1]", "value": "inactive; negative"}, {"measurement": "mutagenic call", "setting": "[2]", "value": "inactive; negative"}, {"measurement": "mutagenic call", "setting": "[3]", "value": "inactive; negative"}, {"measurement": "mutagenic call", "setting": "[4]", "value": "inactive; negative"}, {"measurement": "mutagenic call", "setting": "[5]", "value": "inactive; negative"}, {"measurement": "mutagenic call", "setting": "[6]", "value": "inactive; negative"}, {"measurement": "mutagenic call", "setting": "[7]", "value": "inactive; negative"}, {"measurement": "mutagenic call", "setting": "[8]", "value": "inactive; negative"}, {"measurement": "mutagenic call", "setting": "[9]", "value": "inactive; negative"}, {"measurement": "mutagenic call", "setting": "[10]", "value": "inactive; negative"}, {"measurement": "mutagenic call", "setting": "[11]", "value": "inactive; negative"}, {"measurement": "mutagenic call", "setting": "[12]", "value": "inactive; negative"}]}, {"smiles": "O=C1CCC(=O)O1", "values": [{"measurement": "mutagenic call", "setting": "Strain/Indicator: TA97, Metabolic Activation: HAMSTER, LIVER, S-9, AROCLOR 1254 (10%), Method: PREINCUBATION", "value": "inactive; negative"}, {"measurement": "mutagenic call", "setting": "Strain/Indicator: TA97, Metabolic Activation: HAMSTER, LIVER, S-9, AROCLOR 1254 (30%), Method: PREINCUBATION", "value": "inactive; negative"}, {"measurement": "mutagenic call", "setting": "Strain/Indicator: TA97, Metabolic Activation: HAMSTER, LIVER, S-9, AROCLOR 1254, Method: PREINCUBATION", "value": "inactive; negative"}, {"measurement": "mutagenic call", "setting": "Strain/Indicator: TA97, Metabolic Activation: NONE, Method: PREINCUBATION", "value": "inactive; negative"}, {"measurement": "mutagenic call", "setting": "Strain/Indicator: TA97, Metabolic Activation: RAT, LIVER, S-9, AROCLOR 1254 (10%), Method: PREINCUBATION", "value": "inactive; negative"}, {"measurement": "mutagenic call", "setting": "Strain/Indicator: TA97, Metabolic Activation: RAT, LIVER, S-9, AROCLOR 1254 (30%), Method: PREINCUBATION", "value": "inactive; negative"}, {"measurement": "mutagenic call", "setting": "Strain/Indicator: TA97, Metabolic Activation: RAT, LIVER, S-9, AROCLOR 1254, Method: PREINCUBATION", "value": "inactive; negative"}, {"measurement": "mutagenic call", "setting": "[1]", "value": "inactive; negative"}, {"measurement": "mutagenic call", "setting": "Strain/Indicator: TA98, Metabolic Activation: HAMSTER, LIVER, S-9, AROCLOR 1254 (30%), Method: PREINCUBATION", "value": "inactive; negative"}, {"measurement": "mutagenic call", "setting": "Strain/Indicator: TA98, Metabolic Activation: HAMSTER, LIVER, S-9, AROCLOR 1254, Method: PREINCUBATION", "value": "inactive; negative"}, {"measurement": "mutagenic call", "setting": "[2]", "value": "inactive; negative"}, {"measurement": "mutagenic call", "setting": "[3]", "value": "inactive; negative"}, {"measurement": "mutagenic call", "setting": "Strain/Indicator: TA98, Metabolic Activation: RAT, LIVER, S-9, AROCLOR 1254 (30%), Method: PREINCUBATION", "value": "inactive; negative"}, {"measurement": "mutagenic call", "setting": "Strain/Indicator: TA98, Metabolic Activation: RAT, LIVER, S-9, AROCLOR 1254, Method: PREINCUBATION", "value": "inactive; negative"}, {"measurement": "mutagenic call", "setting": "[4]", "value": "inactive; negative"}, {"measurement": "mutagenic call", "setting": "Strain/Indicator: TA100, Metabolic Activation: HAMSTER, LIVER, S-9, AROCLOR 1254 (30%), Method: PREINCUBATION", "value": "inactive; negative"}, {"measurement": "mutagenic call", "setting": "Strain/Indicator: TA100, Metabolic Activation: HAMSTER, LIVER, S-9, AROCLOR 1254, Method: PREINCUBATION", "value": "inactive; negative"}, {"measurement": "mutagenic call", "setting": "[5]", "value": "inactive; negative"}, {"measurement": "mutagenic call", "setting": "[6]", "value": "inactive; negative"}, {"measurement": "mutagenic call", "setting": "Strain/Indicator: TA100, Metabolic Activation: RAT, LIVER, S-9, AROCLOR 1254 (30%), Method: PREINCUBATION", "value": "inactive; negative"}, {"measurement": "mutagenic call", "setting": "Strain/Indicator: TA100, Metabolic Activation: RAT, LIVER, S-9, AROCLOR 1254, Method: PREINCUBATION", "value": "inactive; negative"}, {"measurement": "mutagenic call", "setting": "[7]", "value": "inactive; negative"}, {"measurement": "mutagenic call", "setting": "Strain/Indicator: TA1535, Metabolic Activation: HAMSTER, LIVER, S-9, AROCLOR 1254 (30%), Method: PREINCUBATION", "value": "inactive; negative"}, {"measurement": "mutagenic call", "setting": "Strain/Indicator: TA1535, Metabolic Activation: HAMSTER, LIVER, S-9, AROCLOR 1254, Method: PREINCUBATION", "value": "inactive; negative"}, {"measurement": "mutagenic call", "setting": "[8]", "value": "inactive; negative"}, {"measurement": "mutagenic call", "setting": "[9]", "value": "inactive; negative"}, {"measurement": "mutagenic call", "setting": "Strain/Indicator: TA1535, Metabolic Activation: RAT, LIVER, S-9, AROCLOR 1254 (30%), Method: PREINCUBATION", "value": "inactive; negative"}, {"measurement": "mutagenic call", "setting": "Strain/Indicator: TA1535, Metabolic Activation: RAT, LIVER, S-9, AROCLOR 1254, Method: PREINCUBATION", "value": "inactive; negative"}, {"measurement": "mutagenic call", "setting": "[10]", "value": "inactive; negative"}, {"measurement": "mutagenic call", "setting": "Strain/Indicator: TA1537, Metabolic Activation: HAMSTER, LIVER, S-9, AROCLOR 1254, Method: PREINCUBATION", "value": "inactive; negative"}, {"measurement": "mutagenic call", "setting": "[11]", "value": "inactive; negative"}, {"measurement": "mutagenic call", "setting": "[12]", "value": "inactive; negative"}, {"measurement": "mutagenic call", "setting": "Strain/Indicator: TA1537, Metabolic Activation: RAT, LIVER, S-9, AROCLOR 1254, Method: PREINCUBATION", "value": "inactive; negative"}]}, {"smiles": "O=[N+]([O-])c1ccc(Sc2ccccc2)cc1", "values": [{"measurement": "mutagenic call", "setting": "Strain/Indicator: TA98(1,8-DNP6), Metabolic Activation: NONE, Method: STANDARD PLATE", "value": "active; positive"}, {"measurement": "mutagenic call", "setting": "Strain/Indicator: TA98(NR), Metabolic Activation: NONE, Method: STANDARD PLATE", "value": "inactive; negative"}, {"measurement": "mutagenic call", "setting": "Strain/Indicator: TA98, Metabolic Activation: NONE, Method: STANDARD PLATE", "value": "active; positive"}, {"measurement": "mutagenic call", "setting": "Strain/Indicator: TA98, Metabolic Activation: RAT, LIVER, S-9, AROCLOR 1254, Method: STANDARD PLATE", "value": "active; positive"}]}, {"smiles": "[N-]=[N+]=NC[C@@H](O)c1ccccc1", "values": [{"measurement": "mutagenic call", "setting": "Strain/Indicator: TA100, Metabolic Activation: RAT, LIVER, S-9, PCB, Method: PREINCUBATION", "value": "active; positive"}]}]}
